Measurements published in PMC9200625, “Identification and Functional Characterization of Peptides With Antimicrobial Activity From the Syphilis Spirochete, Treponema pallidum” (Frontiers in Microbiology, 2022).
Read-outs that look alike come from different tables or passages of the source. Bridge positions count the residues as written; N and C are the ends. Ends that are not written are not given here. Peptide text beside a SMILES is read from it.

Tests used:
E. coli ATCC 9723H = type: cell-based
Experimental: (§1) Bacterial strains used in this study were: E. coli ATCC 9723H, Pseudomonas aeruginosa ATCC 10148, Staphylococcus aureus ATCC 6538P (penicillin resistant), Streptococcus pyogenes (hospital isolate, strain unknown), Mycobacterium smegmatis MC^2155, N. gonorrhoeae ATCC 700825 (streptomycin resistant), and Salmonella enterica subsp. enterica serovar Typhimurium SL1344 (streptomycin resistant). E. coli, P. aeruginosa, S. aureus, M. smegmatis, and S. enterica were cultured aerobically at 37°C in Mueller Hinton broth (MHB) (Sigma-Aldrich, MO, United States) and on nonselective Mueller Hinton agar (MHA) plates. S. pyogenes was cultured in 5% carbon dioxide at 37°C in MHB supplemented with 5% lysed horse blood (Quad Five, MT, United States) (MHB + 5% HB) and on nonselective MHA plates supplemented with 5% defibrinated sheep blood (Quad Five, MT, United States) (MHA + 5% SB). N. gonorrhoeae was cultured in 5% carbon dioxide at 37°C in gonococcal (GC) chocolate broth medium and on nonselective GC agar plates [GC medium base (BD Difco, MD, United States) supplemented with 1% BBL™ hemoglobin (BD Biosciences, MD, United States) and 1% IsoVitaleX (BD Biosciences, MD, United States)]. Prior to antimicrobial susceptibility assays (as described below), N. gonorrhoeae cultures were subcultured on nonselective GC agar plates (as described above), to ensure bacterial viability. All bacterial stocks were stored in 20% glycerol at –80°C.
(§2) Bacterial suspensions were prepared by transferring bacterial colonies into MHB and resuspending using a vortex mixer to ensure complete suspension of any bacterial aggregates. Turbidity of the colony suspensions was adjusted spectrophotometrically to the required optical densities to achieve a turbidity equivalent to that of a 0.5 McFarland standard (1–2 × 10^8 CFU/mL) followed by dilution in MHB to achieve the standardized microbial inoculum of approximately 5 × 10^5 CFU/mL. Total viable counts (TVC) were routinely performed on all inoculum suspensions to ensure correct bacterial cell densities. The standardized bacterial suspensions were then incubated with two-fold serial dilutions of each peptide (dissolved in 11 μL of ultrapure sterile water; final peptide concentration range of 256 μg/mL–0.5 μg/mL) in Greiner polypropylene round bottom 96-well microtiter plates (Sigma-Aldrich, MO, United States). Each peptide was tested once per experiment, with a range of 3–9 independent experiments performed per peptide. Negative growth/sterility control wells contained bacterial growth media (100 μL) and the peptide solvent (11 μL of ultrapure sterile water). Positive growth control wells contained the standardized number of bacterial cells (100 μL of ∼ 5.0 × 10^5 CFU/mL) and peptide solvent (11 μL of ultrapure sterile water). Plates were incubated at 37°C for 16–24 h and MICs were determined using the unaided eye to identify the lowest concentration of AMP that inhibited visible growth of the tested bacterial species. If the sterility control well was turbid, the test was not considered valid. MBCs were determined by plating the entire content of the wells containing the peptide/bacteria mixture representing the MIC and the entire contents of the preceding wells containing two-fold and four-fold more concentrated AMP dilutions onto nonselective agar plates.

[1] = test system: S. pyogenes Unknown strain; Clinical Isolate; type: cell-based, Streptococcus pyogenes; settings: for MIC: broth microdilution, cultured in MHB + 5% lysed horse blood, 5% carbon dioxide, ~5 × 10^5 CFU/mL, peptide 256–0.5 μg/mL, 37°C 16–24 h, visible growth
Experimental: as §1, §2

S. enterica SL1344 = type: cell-based, Salmonella enterica subsp. enterica serovar Typhimurium
Experimental: as §1
(§3) Bacterial suspensions were prepared by transferring bacterial colonies into MHB and resuspending using a vortex mixer to ensure complete suspension of any bacterial aggregates. Turbidity of the colony suspensions was adjusted spectrophotometrically to the required optical densities to achieve a turbidity equivalent to that of a 0.5 McFarland standard (1–2 × 10^8 CFU/mL) followed by dilution in MHB to achieve the standardized microbial inoculum of approximately 5 × 10^5 CFU/mL. Total viable counts (TVC) were routinely performed on all inoculum suspensions to ensure correct bacterial cell densities. […] Plates were incubated at 37°C for 16–24 h and MICs were determined using the unaided eye to identify the lowest concentration of AMP that inhibited visible growth of the tested bacterial species. […] MBCs were determined by plating the entire content of the wells containing the peptide/bacteria mixture representing the MIC and the entire contents of the preceding wells containing two-fold and four-fold more concentrated AMP dilutions onto nonselective agar plates.

P. aeruginosa ATCC 10148 = type: cell-based, Pseudomonas aeruginosa
Experimental: as §1, §2

M. smegmatis MC^2155 = type: cell-based, Mycobacterium smegmatis
Experimental: as §1, §2

S. aureus ATCC 6538P = type: cell-based, Staphylococcus aureus
Experimental: as §1, §3

[2] = test system: N. gonorrhoeae ATCC 700825; type: cell-based, Neisseria gonorrhoeae
Experimental: as §1
The potential antimicrobial activity of the T. pallidum peptides against N. gonorrhoeae was determined using a modified agar dilution method. In this assay, N. gonorrhoeae colonies from GC chocolate agar plates were resuspended in MHB and the turbidity of the suspension was adjusted, as described above, to achieve the standardized microbial inoculum of approximately 5 × 10^5 CFU/mL. A two-fold serial dilution of the peptides (11 μL in sterile ultrapure water) was then prepared in wells 1–10 of a 96-well sterile polypropylene plate to obtain a dilution series corresponding to 10 times the required testing concentrations (2,560, 1,280, 640, 320, 160, 80, 40, 20, 10, 5 μg/mL). The bacterial suspension (100 μL) was dispensed into the wells containing the peptides. A negative growth/sterility control (well 12) contained bacterial growth media (100 μL) and the peptide solvent (11 μL of ultrapure sterile water). A positive growth control (well 11) contained the standardized number of bacterial cells (100 μL of ∼ 5.0 × 10^5 CFU/mL) and peptide solvent (11 μL of ultrapure sterile water). The 96-well plate was then incubated at 37°C in an atmosphere of 5% CO2 for 3 h to allow for peptide binding and antimicrobial activity. After the incubation period, an aliquot (20 μL) from wells 1–12 was removed and spotted onto the surface of a GC chocolate agar plate. N. gonorrhoeae spotted plates and TVC plates were incubated at 37°C in an atmosphere of 5% CO2 for 18–24 h. […] To determine the bactericidal activity of peptides, total viable counts (TVCs) were also prepared on GC chocolate agar plates for the 3 h-incubated peptide/bacteria mixtures. These counts were compared with TVCs from the corresponding positive growth wells to give the percentage of bacteria killed by each of the peptides following the 3-h incubation.

[3] = range over 3–9 independent experiments
[4] = wells at MIC, two-fold and four-fold higher plated on nonselective agar, 24 h 37°C, range over 3–9 independent experiments
[5] = broth microdilution in MHB, ~5 × 10^5 CFU/mL, peptide 256–0.5 μg/mL two-fold dilutions, 37°C 16–24 h, visible growth by unaided eye, range over 3–9 independent experiments

Compound | N. gonorrhoeae killing (%) ([2]; ATCC 700825, 3 h, 128 μg/mL) | N. gonorrhoeae killing (%) ([2]; ATCC 700825, 3 h, 256 μg/mL) | N. gonorrhoeae killing (%) ([2]; ATCC 700825, 3 h, 32 μg/mL) | N. gonorrhoeae killing (%) ([2]; ATCC 700825, 3 h, 64 μg/mL) | MIC (M. smegmatis MC^2155; [5]) | MBC (M. smegmatis MC^2155; [4]) | MIC (E. coli ATCC 9723H; [5]) | other results
CC[C@H](C)[C@H](NC(=O)[C@@H](NC(=O)[C@@H]1CCCN1C(=O)[C@H](Cc1ccccc1)NC(=O)[C@@H](N)Cc1ccccc1)[C@@H](C)CC)C(=O)N[C@@H](C)C(=O)N[C@@H](CCCNC(=N)N)C(=O)N[C@@H](CC(C)C)C(=O)N[C@@H](C)C(=O)N[C@@H](C)C(=O)N[C@@H](CCCCN)C(=O)N[C@H](C(=O)N[C@H](C(=O)N1CCC[C@H]1C(=O)N[C@@H](CO)C(=O)N[C@@H](CC(C)C)C(=O)N[C@H](C(=O)N[C@H]1CSSC[C@@H](C(=O)O)NC(=O)[C@H](CCCCN)NC(=O)[C@H](CCCCN)NC(=O)[C@H]([C@@H](C)O)NC(=O)[C@H](C(C)C)NC(=O)[C@H](C)NC1=O)C(C)C)[C@@H](C)CC)C(C)C [RaCa-2] (H-FFPIIARLAAKVIPSLVCAVTKKC-OH; disulfide 18-24; N-terminus and C-terminus assumed) |  |  |  |  |  |  |  | MIC (E. coli ATCC 9723H; ATCC 9723): 3.1 to 12.4 µM; MBC (E. coli ATCC 9723H; ATCC 9723, 24 h): 6.2 to 24.7 µM; MBC ([1]; Unknown strain, Clinical Isolate, 24 h): 6.2 to 49.4 µM; MIC (S. enterica SL1344; SL1344): 6.2 to 49.4 µM; MBC (S. enterica SL1344; SL1344, 24 h): 12.4 to 98.9 µM; MIC (P. aeruginosa ATCC 10148; ATCC 10148): 49.4 to 98.9 µM; MBC (P. aeruginosa ATCC 10148; ATCC 10148, 24 h): ≥98.9 µM; MIC (M. smegmatis MC^2155; MC^2155): 1.5 to 3.1 µM; MBC (M. smegmatis MC^2155; MC^2155, 24 h): 1.5 to 6.2 µM; MIC (S. aureus ATCC 6538P; ATCC 6538): 3.1 to 6.2 µM; MBC (S. aureus ATCC 6538P; ATCC 6538, 24 h): 3.1 to 12.4 µM
CC(C)C[C@H](NC(=O)[C@H](CCC(=O)O)NC(=O)[C@H](CC(N)=O)NC(=O)CNC(=O)[C@H](Cc1ccc(O)cc1)NC(=O)[C@H](CS)NC(=O)[C@H](Cc1c[nH]cn1)NC(=O)[C@H](CC(C)C)NC(=O)[C@H](CO)NC(=O)[C@H](CCCNC(=N)N)NC(=O)[C@H](Cc1c[nH]cn1)NC(=O)[C@H](Cc1ccc(O)cc1)NC(=O)CNC(=O)[C@@H](NC(=O)[C@H](CC(N)=O)NC(=O)[C@H](CS)NC(=O)[C@H](CC(N)=O)NC(=O)[C@H](CS)NC(=O)[C@H](Cc1c[nH]cn1)NC(=O)[C@H](CO)NC(=O)CNC(=O)[C@H](CS)NC(=O)CN)C(C)C)C(=O)N[C@@H](Cc1c[nH]cn1)C(=O)NCC(=O)N[C@@H](CCCCN)C(=O)N[C@@H](CCC(N)=O)C(=O)N[C@@H](CS)C(=O)NCC(=O)N[C@@H](Cc1ccccc1)C(=O)N[C@@H](CO)C(=O)N[C@@H](CCCNC(=N)N)C(=O)N[C@@H](CS)C(=O)NCC(=O)O [Tp0451a_N] (H-GCGSHCNCNVGYHRSLHCYGNELHGKQCGFSRCG-OH) | 0% | 0% |  |  |  |  |  | 
AMRIALWNRATHGEQGALQHLLAG [Tp0751_p5] | 0% | 0% | 0% | 0% |  |  |  | 
IGRARAITHTWGIWCRWGKVWRRS [Tp0451a_C] | 94.4–100% | 97.6–100% | 0–93.0% | 90.5–100% | 1.4 to 2.7 µM | 1.4 to 5.4 µM |  | MIC [1, 3]: 5.4 to 10.8 µM; MBC [1, 4]: 5.4 to 43.3 µM
IGRARAITHTWGIWSRWGKVWRRS [Tp0451a_C_C85S] | 0% | 0% | 0% | 0% | 5.4 µM | 10.9 µM | 10.9 to 21.8 µM | MBC (E. coli ATCC 9723H; [4]): 10.9 to 43.6 µM; MIC [1, 3]: 5.4 to 10.9 µM; MBC [1, 4]: 10.9 to 43.6 µM
KGIVAERILKPCVRRKVNGKFRS [Tp0749_C] | 0% | 0% |  |  | 1.5 to 3.0 µM | 1.5 to 3.0 µM | 12.0 µM | MBC (E. coli ATCC 9723H; [4]): 48.2 to 96.4 µM; MIC (P. aeruginosa ATCC 10148; [5]): 24.1 to 48.2 µM; MBC (P. aeruginosa ATCC 10148; [4]): 96.4 µM
KGIVAERILKPSVRRKVNGKFRS [Tp0749_C_C61S] | 0% | 0% |  |  | 12.1 to 24.2 µM | 24.2 to 48.5 µM | 24.2 to 48.5 µM | MIC (P. aeruginosa ATCC 10148; [5]): 97.0 µM
PFMQVITWARLYHKNQKRYEKIKK [Tp0749_N] | 0% | 0% |  |  | 0.3 to 1.3 µM | 1.3 µM |  | 
RSLEGTDRFPFVRLKNSRKLEFKDIKGIKREQFVKIL [sLL-37] |  |  |  |  |  |  |  | N. gonorrhoeae killing (%) ([2]; peptide 32 μg/mL, 3-h incubation 37°C 5% CO2, TVCs versus positive growth control, all of three to six independent experiments): 0%; N. gonorrhoeae killing (%) ([2]; peptide 64 μg/mL, 3-h incubation 37°C 5% CO2, TVCs versus positive growth control, all of three to six independent experiments): 0%; N. gonorrhoeae killing (%) ([2]; peptide 128 μg/mL, 3-h incubation 37°C 5% CO2, TVCs versus positive growth control, all of three to six independent experiments): 0%; N. gonorrhoeae killing (%) ([2]; peptide 256 μg/mL, 3-h incubation 37°C 5% CO2, TVCs versus positive growth control, all of three to six independent experiments): 0%; MIC (P. aeruginosa ATCC 10148; ATCC 10148): ≥57 µM; MIC (M. smegmatis MC^2155; MC^2155): 14.2 to 28.5 µM; MBC (M. smegmatis MC^2155; MC^2155, 24 h): ≥57 µM
